For 13 compounds, IC50 results are on record in ChEMBL document CHEMBL1126489, “N1-sterically hindered 2H-imidazol-2-one angiotensin II receptor antagonists: The conversion of surmountable antagonists to insurmountable antagonists” (Bioorg Med Chem Lett, 1993).

This assay has as its target T1, Angiotensin II receptor (Rattus norvegicus, UniProt P29089+P25095+P35351).
T1 sequence (P29089 whole entry): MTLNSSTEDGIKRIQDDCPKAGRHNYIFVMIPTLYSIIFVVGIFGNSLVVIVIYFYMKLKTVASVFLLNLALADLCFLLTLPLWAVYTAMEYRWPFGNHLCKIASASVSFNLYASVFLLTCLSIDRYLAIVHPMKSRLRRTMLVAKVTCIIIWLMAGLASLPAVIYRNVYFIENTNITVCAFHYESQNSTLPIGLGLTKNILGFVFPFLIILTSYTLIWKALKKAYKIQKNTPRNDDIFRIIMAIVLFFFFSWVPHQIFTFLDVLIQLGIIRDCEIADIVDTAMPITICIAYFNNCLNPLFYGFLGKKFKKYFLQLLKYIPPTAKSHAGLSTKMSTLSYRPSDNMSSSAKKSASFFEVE
T1 sequence (P25095 whole entry): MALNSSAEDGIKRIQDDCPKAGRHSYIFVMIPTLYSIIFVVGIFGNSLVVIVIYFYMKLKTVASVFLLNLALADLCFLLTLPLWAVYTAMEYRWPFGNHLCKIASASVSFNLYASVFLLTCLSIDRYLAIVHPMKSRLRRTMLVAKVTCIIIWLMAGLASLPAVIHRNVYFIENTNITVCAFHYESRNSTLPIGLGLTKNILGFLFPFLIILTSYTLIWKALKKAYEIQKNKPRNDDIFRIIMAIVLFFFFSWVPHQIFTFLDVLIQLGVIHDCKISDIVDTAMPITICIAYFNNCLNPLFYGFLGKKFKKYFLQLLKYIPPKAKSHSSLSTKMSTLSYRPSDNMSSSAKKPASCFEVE
T1 sequence (P35351 whole entry): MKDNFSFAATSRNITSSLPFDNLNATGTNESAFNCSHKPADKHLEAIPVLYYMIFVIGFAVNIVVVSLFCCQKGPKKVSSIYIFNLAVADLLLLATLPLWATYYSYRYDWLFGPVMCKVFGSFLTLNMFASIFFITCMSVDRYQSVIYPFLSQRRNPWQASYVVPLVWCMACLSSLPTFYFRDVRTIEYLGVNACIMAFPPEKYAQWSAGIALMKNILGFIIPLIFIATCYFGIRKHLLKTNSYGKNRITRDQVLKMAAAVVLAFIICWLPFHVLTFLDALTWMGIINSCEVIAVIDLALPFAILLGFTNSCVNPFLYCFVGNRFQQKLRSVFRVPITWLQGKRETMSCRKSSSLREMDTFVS
Description: Inhibition of [125I]-AII binding to Angiotensin II receptor of rat uterine membrane.
For `CCCCc1cn(CCCC)c(=O)n1Cc1ccc(-c2ccccc2-c2nn[nH]n2)cc1` [SC-51895], the IC50 came out at 12 nM. This counts as double-digit nanomolar.
Turning to `CCCCc1cn(-c2ccccc2C(C)(C)C)c(=O)n1Cc1ccc(-c2ccccc2-c2nn[nH]n2)nc1`, the IC50 worked out at 19 nM. This IC50 lies about 1.6-fold higher than the previous one.
`CCCCc1cn(-c2c(C)cccc2C)c(=O)n1Cc1ccc(-c2ccccc2-c2nn[nH]n2)nc1` gave an IC50 of 5 nM.
`CCCCC1=NC2(CCCC2)C(=O)N1Cc1ccc(-c2ccccc2-c2nnn[nH]2)cc1` [IRBESARTAN] had a half-maximal inhibitory concentration (IC50) of 1.3 nM.
The value for `CCCCc1cn(-c2ccccc2C)c(=O)n1Cc1ccc(-c2ccccc2-c2nn[nH]n2)nc1` was 9.4 nM; that for `CCCCc1cn(-c2ccccc2C(C)C)c(=O)n1Cc1ccc(-c2ccccc2-c2nn[nH]n2)nc1` was 14 nM; that for `CCCCc1cn(-c2ccccc2CC)c(=O)n1Cc1ccc(-c2ccccc2-c2nn[nH]n2)nc1` was 4.5 nM.
In turn, `CCCCc1cn(CCCC)c(=O)n1Cc1ccc(-c2ccccc2-c2nn[nH]n2)nc1` [SC-52892] displayed an IC50 of 6.5 nM.
Compound `CCCCc1cn([C@H]2[C@H](C)CCC[C@@H]2C)c(=O)n1Cc1ccc(-c2ccccc2-c2nn[nH]n2)nc1` [SC-55634] came in with an IC50 of 4.9 nM. This IC50 and that of the compound before are within 1.5-fold of each other.
The value for `CCCCc1cn(-c2ccccc2)c(=O)n1Cc1ccc(-c2ccccc2-c2nn[nH]n2)nc1` was 45 nM; that for `CCCCc1cn(-c2c(CC)cccc2CC)c(=O)n1Cc1ccc(-c2ccccc2-c2nn[nH]n2)nc1` was 5 nM; that for `CCCCc1nc(CCCC)n(Cc2ccc(-c3ccccc3-c3nn[nH]n3)cc2)n1` was 5.6 nM.
`CCCCc1cn(-c2c(C(C)C)cccc2C(C)C)c(=O)n1Cc1ccc(-c2ccccc2-c2nn[nH]n2)nc1` displayed an IC50 of 34 nM.

The IC50 is the concentration that gives 50% inhibition. High values mean weaker potency in that assay, low ones greater potency in that assay.
